For 8 molecules, IC50 results are on record in ChEMBL document CHEMBL3407333, “Synthesis and biological evaluation of second-generation tropanol-based androgen receptor modulators” (J Med Chem, 2015).

Structures are written as SMILES. pIC50: −log10 of the molar value.

The target in test [1] is T1, Androgen receptor (Homo sapiens, UniProt P10275).
T1 sequence (P10275 whole entry): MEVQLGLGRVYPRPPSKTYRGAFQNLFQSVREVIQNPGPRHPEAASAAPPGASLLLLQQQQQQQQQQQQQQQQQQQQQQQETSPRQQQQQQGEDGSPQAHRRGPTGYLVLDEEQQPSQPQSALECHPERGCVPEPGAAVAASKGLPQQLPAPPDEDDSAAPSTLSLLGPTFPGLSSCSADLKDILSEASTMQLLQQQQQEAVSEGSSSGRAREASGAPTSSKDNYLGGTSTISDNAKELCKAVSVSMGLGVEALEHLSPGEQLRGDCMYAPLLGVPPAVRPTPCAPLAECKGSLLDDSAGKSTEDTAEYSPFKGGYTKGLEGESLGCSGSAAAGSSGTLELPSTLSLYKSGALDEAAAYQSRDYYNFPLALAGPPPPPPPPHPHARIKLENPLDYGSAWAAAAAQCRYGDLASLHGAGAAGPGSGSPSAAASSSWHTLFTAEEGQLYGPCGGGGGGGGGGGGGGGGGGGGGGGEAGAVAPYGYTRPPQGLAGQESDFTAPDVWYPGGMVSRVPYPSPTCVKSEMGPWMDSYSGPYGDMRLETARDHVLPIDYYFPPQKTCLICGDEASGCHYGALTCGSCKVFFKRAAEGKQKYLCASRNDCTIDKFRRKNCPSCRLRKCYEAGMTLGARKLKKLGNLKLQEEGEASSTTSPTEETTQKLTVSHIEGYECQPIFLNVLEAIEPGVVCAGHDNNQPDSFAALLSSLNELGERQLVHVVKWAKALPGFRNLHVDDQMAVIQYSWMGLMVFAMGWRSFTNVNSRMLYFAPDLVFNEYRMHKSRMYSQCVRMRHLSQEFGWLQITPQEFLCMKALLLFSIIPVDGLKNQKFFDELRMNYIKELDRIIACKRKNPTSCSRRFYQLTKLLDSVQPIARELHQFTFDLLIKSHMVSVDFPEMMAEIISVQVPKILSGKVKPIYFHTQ
As to the kind of experiment: Displacement of [3H]R1881 from pSG5-tagged human androgen receptor expressed in COS1 cells assessed as relative binding inhibition. The test is classed as cell-based, COS-1. For orientation: In a radioligand displacement assay an active substance lowers the binding of a labelled ligand.

In test [2] the target is T1, Androgen receptor. Briefly: Antagonist activity against pSG5-tagged human androgen receptor expressed in COS1 cells assessed as reduction in receptor-mediated transcriptional activity by AR-regulated rat probasin promoter fragment driven firefly luciferase reporter assay. The test is classed as cell-based, COS-1. A general note: Reporter assays use an easily measured gene product as a stand-in for the process of interest.

Regarding `N#Cc1ccc(N2[C@@H]3CC[C@H]2C[C@@H](O)C3)cc1Cl`, the pIC50 in test [1] and in test [2] was 7.50 throughout.

For the molecule `N#Cc1ccc(N2C3CCC2CC(=O)C3)cc1C(F)(F)F`, the pIC50 in test [1] and in test [2] was 7.18 in each case.

On to `Cc1c(N2C3CCC2CC(C)(O)C3)ccc(C#N)c1Cl` (stereo unspecified), for which the pIC50 in test [1] and in test [2] was 8.68 in each case.

Take `N#Cc1ccc(N2[C@H]3CC[C@H]2CC(O)C3)cc1C(F)(F)F` (relative stereo): the pIC50 in test [1] and in test [2] was 7.40 throughout.

As for `CC1(O)C[C@@H]2CC[C@@H](C1)N2c1ccc(C#N)c(C(F)(F)F)c1` (relative stereo), the pIC50 in test [1] and in test [2] was 7.53 each time.

For `N#Cc1ccc(N2[C@H]3CC[C@H]2CC(NCc2ccccc2)C3)cc1C(F)(F)F` (relative stereo), the pIC50 in test [1] and in test [2] was 6.63 each time.

On to `CS(=O)(=O)NC1C[C@@H]2CC[C@@H](C1)N2c1ccc(C#N)c(C(F)(F)F)c1` (relative stereo), for which the pIC50 in test [1] and in test [2] was 5.58 each time.

As to `CCS(=O)(=O)NC1C[C@@H]2CC[C@@H](C1)N2c1ccc(C#N)c(C(F)(F)F)c1` (relative stereo), the negative-log IC50 (pIC50) in test [1] and in test [2] was 5.69 each time.

In general, pIC50 refers to −log10 of the IC50, conventionally taken in molar units.
